Measurements: patent US20240124504A1, “AROMATIC HETEROCYCLIC COMPOUND, AND PHARMACEUTICAL COMPOSITION AND APPLICATION THEREOF” (GT APEIRON THERAPEUTICS LIMITED, priority 2020, published 2024)

Legend:
[1] = test system: ovarian cancer A2780; test: Cell biological activity detection (CyQuant, 72 hours), A2780; format: cell-based, human; conditions: Homo sapiens, A2780, 72 h, A2780 cells, incubation for 72 hours
Outline: (§1)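 IC50 derived from CyQuant Direct nuclear staining (488 nm excitation) after 72 h compound exposure at 37 °C, 5% CO2. Compounds tested in 9 concentrations from 10 μM, 1:4 steps, 0.2% DMSO, on A2780 or HCC70 cells plated overnight at 2000/well in RPMI 1640 + 10% FBS.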

[2] = target: T1, CDK12 (aa686-1082)/cyclinK complex (Homo sapiens, UniProt Q9NYV4); test: In-vitro enzymatic inhibitory activity testing, CDK12 inhibition assay (Caliper EZ Reader II); format: biochemical; conditions: CDK12/cyclinK 50 nM, 180 min at 27° C.; read-out: CDK12 IC50
T1 construct: A CDK12 (aa686-1082)/cyclinK complex (50 nM)
Outline: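 CDK12 (aa686-1082)/cyclinK complex at 50 nM was pre-incubated with compound for 10 min, then reacted 180 min at 27° C with ATP and 2 μM 5-FAM-CDK9tide in pH 6.5 MES buffer with 10 mM MgCl2. Reactions were EDTA-quenched and product resolved electrophoretically; IC50 from nonlinear curve fit.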

[3] = target: CDK7/cyclinH/MAT1 complex (Homo sapiens, UniProt P50613); test: In-vitro enzymatic inhibitory activity testing, CDK7 inhibition assay (Caliper EZ Reader II); format: biochemical; conditions: CDK7/cyclinH/MAT1 6 nM, 180 min at 27° C.
Outline: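 Enzyme preincubated 10 min with compound, then peptide substrate plus ATP added in 80 mM MES pH 6.5, 10 mM MgCl2 buffer; 180 min at 27 °C, stopped with EDTA.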

[4] = test system: human breast cancer cells HCC70; test: Cell biological activity detection (CyQuant, 72 hours), HCC70; format: cell-based; conditions: Homo sapiens, HCC70, 72 h, incubation for 72 hours
Outline: as §1

[5] = target: CDK9/cyclinT1 complex (Homo sapiens, UniProt P50750); test: In-vitro enzymatic inhibitory activity testing, CDK9 inhibition assay (Caliper EZ Reader II); format: biochemical; conditions: CDK9/cyclinT1 8 nM, 180 min at 27° C.
Outline: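 Phosphorylated and unphosphorylated fluorescent peptide were resolved by mobility-shift electrophoresis, with IC50 taken from a nonlinear regression of dose-response data. Reactions ran 180 min at 27 °C in MES buffer pH 6.5 with MgCl2, after 10 min enzyme–compound preincubation, using 8 nM CDK9/cyclinT1 and 5-FAM-CDK9tide.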

[6] = target: CDK2/cyclinE1 complex (Homo sapiens, UniProt P24941); test: In-vitro enzymatic inhibitory activity testing, CDK2 inhibition assay (Caliper EZ Reader II); format: biochemical; conditions: CDK2/cyclinE1 0.5 nM, 180 min at 27° C.
Outline: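 CDK2/cyclinE1 (0.5 nM) phosphorylated 5-FAM-CDK7tide (2 μM) in MES buffer pH 6.5 with MgCl2, Tween 20 and BSA. Substrate and product were separated electrophoretically on a Caliper EZ Reader II. IC50 values came from nonlinear dose-response fits.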

T1 sequence (Q9NYV4 686-1082, species assumed): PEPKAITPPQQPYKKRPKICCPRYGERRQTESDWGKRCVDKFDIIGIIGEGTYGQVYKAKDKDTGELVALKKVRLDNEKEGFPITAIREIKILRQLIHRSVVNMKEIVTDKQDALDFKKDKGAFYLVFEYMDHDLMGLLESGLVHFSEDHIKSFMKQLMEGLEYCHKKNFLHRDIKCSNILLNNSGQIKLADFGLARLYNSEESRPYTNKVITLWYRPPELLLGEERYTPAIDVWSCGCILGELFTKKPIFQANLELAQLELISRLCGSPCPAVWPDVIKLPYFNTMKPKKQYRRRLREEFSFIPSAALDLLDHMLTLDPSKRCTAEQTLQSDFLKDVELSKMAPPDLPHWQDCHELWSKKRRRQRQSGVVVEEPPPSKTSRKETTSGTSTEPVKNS
T1 sequence (O75909 whole entry partner, species assumed, the tested form may be a part): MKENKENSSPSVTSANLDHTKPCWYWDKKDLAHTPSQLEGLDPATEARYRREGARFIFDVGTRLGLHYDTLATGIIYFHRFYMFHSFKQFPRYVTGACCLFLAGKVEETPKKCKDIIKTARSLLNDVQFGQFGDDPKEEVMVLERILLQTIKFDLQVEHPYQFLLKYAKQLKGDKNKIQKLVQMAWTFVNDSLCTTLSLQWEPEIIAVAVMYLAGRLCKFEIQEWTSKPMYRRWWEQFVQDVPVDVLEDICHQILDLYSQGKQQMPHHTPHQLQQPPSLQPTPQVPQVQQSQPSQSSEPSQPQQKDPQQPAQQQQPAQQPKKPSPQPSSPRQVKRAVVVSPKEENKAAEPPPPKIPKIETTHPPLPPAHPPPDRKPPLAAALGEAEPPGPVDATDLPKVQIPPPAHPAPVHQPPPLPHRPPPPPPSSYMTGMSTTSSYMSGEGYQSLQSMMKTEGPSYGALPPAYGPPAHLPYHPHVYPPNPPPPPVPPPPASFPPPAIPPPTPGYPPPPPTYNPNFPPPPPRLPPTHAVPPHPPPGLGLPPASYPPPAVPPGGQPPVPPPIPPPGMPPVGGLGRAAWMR
Chain of CDK7/cyclinH/MAT1 complex (P50613 whole entry, species assumed): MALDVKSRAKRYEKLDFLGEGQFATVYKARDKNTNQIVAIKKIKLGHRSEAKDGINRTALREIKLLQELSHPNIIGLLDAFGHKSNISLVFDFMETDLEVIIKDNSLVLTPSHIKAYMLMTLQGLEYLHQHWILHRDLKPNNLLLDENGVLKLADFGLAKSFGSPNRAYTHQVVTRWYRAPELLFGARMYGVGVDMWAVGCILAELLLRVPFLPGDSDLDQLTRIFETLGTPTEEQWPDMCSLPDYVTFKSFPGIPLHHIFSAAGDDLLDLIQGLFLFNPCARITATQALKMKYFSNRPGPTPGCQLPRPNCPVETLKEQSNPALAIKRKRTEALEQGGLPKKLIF
Chain of CDK7/cyclinH/MAT1 complex (P51946 whole entry partner, species assumed): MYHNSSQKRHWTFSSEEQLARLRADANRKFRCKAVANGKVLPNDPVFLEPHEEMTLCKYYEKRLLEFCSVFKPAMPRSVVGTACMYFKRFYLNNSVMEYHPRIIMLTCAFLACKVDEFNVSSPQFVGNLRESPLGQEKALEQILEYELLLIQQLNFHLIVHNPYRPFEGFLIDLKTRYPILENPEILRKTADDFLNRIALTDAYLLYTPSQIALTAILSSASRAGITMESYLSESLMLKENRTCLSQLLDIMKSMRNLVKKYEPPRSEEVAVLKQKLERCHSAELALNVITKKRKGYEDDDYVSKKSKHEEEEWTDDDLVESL
Chain of CDK7/cyclinH/MAT1 complex (P51948 whole entry partner, species assumed): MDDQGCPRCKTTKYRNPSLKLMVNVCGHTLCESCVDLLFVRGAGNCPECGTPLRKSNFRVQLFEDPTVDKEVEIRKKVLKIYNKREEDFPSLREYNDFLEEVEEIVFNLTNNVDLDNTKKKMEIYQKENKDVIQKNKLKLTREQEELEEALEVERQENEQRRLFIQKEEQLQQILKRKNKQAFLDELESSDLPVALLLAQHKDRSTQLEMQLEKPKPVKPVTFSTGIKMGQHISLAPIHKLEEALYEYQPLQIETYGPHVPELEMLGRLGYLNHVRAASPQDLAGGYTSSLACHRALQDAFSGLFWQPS
Chain of CDK9/cyclinT1 complex (P50750 whole entry, species assumed): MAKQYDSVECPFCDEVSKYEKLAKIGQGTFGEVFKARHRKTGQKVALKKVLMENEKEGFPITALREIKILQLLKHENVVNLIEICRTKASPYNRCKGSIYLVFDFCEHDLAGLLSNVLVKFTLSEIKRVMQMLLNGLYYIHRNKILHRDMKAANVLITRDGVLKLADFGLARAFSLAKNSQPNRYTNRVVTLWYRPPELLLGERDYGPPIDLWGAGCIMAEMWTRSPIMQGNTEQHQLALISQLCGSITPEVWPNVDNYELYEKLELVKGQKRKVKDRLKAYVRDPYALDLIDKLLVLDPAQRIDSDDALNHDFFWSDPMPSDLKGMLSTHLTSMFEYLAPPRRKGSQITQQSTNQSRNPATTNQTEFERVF
Chain of CDK9/cyclinT1 complex (O60563 whole entry partner, species assumed): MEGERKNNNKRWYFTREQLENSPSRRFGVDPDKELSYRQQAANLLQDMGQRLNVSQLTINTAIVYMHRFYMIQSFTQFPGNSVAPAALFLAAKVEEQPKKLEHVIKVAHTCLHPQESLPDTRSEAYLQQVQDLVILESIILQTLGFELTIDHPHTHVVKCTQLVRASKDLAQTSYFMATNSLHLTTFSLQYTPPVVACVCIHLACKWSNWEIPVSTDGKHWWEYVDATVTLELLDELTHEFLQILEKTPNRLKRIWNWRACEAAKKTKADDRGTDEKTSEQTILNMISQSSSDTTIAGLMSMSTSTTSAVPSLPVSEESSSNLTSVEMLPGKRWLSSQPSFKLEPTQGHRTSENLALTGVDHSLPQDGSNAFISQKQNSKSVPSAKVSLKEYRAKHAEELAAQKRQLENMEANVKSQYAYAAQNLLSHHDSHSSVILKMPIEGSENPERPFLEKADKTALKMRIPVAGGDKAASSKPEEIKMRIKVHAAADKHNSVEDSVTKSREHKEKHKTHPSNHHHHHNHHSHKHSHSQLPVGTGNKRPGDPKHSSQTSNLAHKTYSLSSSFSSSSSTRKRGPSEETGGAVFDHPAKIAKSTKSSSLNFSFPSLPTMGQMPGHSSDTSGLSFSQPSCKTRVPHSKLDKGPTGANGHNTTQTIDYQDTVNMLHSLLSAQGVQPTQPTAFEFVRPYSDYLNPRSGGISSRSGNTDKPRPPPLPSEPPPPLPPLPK

Row | Compound | IC50 [1] [µM] | IC50 [2] [µM] | IC50 [3] [µM] | IC50 [4] [µM] | IC50 [5] [µM] | IC50 [6] [µM]
1 | FC(F)(F)c1cnc(N[C@@H]2CCC23CNC3)nc1-c1c[nH]c2nc(N3CCOCC3)ccc12 [Compound 59, (R)—N-(4-(6-morpholinyl-1H-pyrrolo[2,3-b]pyridin-3-yl)-5-(trifluoromethyl)pyrimidin-2-yl)-2-azaspiro[3.3]heptan-5-amine] | 0.02 to 0.2 | > 50 | < 0.02 | 0.02 to 0.2 | 5 to 50 | 5 to 50
2 | CC1(C)COCC(Nc2ncc(C(F)(F)F)c(-c3c[nH]c4nc(C#N)ccc34)n2)CN1 (stereo not drawn) [Compound 62, 3-(2-((3,3-dimethyl-1,4-oxazepan-6-yl)amino)-5-(trifluoromethyl)pyrimidin-4-yl)-1H-pyrrolo[2,3-b]pyridine-6-carbonitrile] | 0.2 to 5 | 5 to 50 | 0.02 to 0.2 | 0.2 to 5 | > 50 | > 50
3 | N#Cc1ccc2c(-c3nc(N[C@H]4CC[C@H](N)C4)ncc3C(F)(F)F)c[nH]c2n1 [Compound 65, 3-(2-(((1S,3S)-3-aminocyclopentyl)amino)-5-(trifluoromethyl)pyrimidin-4-yl)-1H-pyrrolo[2,3-b]pyridine-6-carbonitrile] | 0.02 to 0.2 | 5 to 50 | < 0.02 | 0.02 to 0.2 | 5 to 50 | 5 to 50
4 | CN(C)[C@H]1CC[C@H](Nc2ncc(C(F)(F)F)c(-c3c[nH]c4nc(C#N)ccc34)n2)C1 [Compound 66] | 0.02 to 0.2 | 0.2 to 5 | 0.02 to 0.2 | < 0.02 | 5 to 50 | 0.2 to 5
5 | C[C@H]1COCCN1c1ccc2c(-c3nc(N[C@@H]4CCC45CNC5)ncc3C(F)(F)F)c[nH]c2n1 [Compound 67, (R)—N-(4-(6-((S)-3-methylmorpholine)-1H-pyrrolo[2,3-b]pyridin-3-yl)-5-(trifluoromethyl)pyrimidin-2-yl)-2-azaspiro[3.3]heptan-5-amine] | 0.02 to 0.2 | 5 to 50 | < 0.02 | 0.02 to 0.2 | 5 to 50 | 5 to 50
6 | C[C@H]1COCCN1c1ccc2c(-c3nc(N[C@H]4CC[C@@H](N)C4)ncc3C(F)(F)F)c[nH]c2n1 [Compound 68, (1S,3R)—N1-(4-(6-((S)-3-methylmorpholinyl)-1H-pyrrolo[2,3-b]pyridin-3-yl)-5-(trifluoromethyl)pyrimidin-2-yl)cyclopentan-1,3-diamine] | 0.2 to 5 | 5 to 50 | 0.02 to 0.2 | 0.2 to 5 | 5 to 50 | 5 to 50
7 | CC1(C)COCC(Nc2ncc(C(F)(F)F)c(-c3c[nH]c4c(P(C)(C)=O)c(C#N)ccc34)n2)CN1 (stereo not drawn) [Compound 76, 3-(2-((3,3-dimethyl-1,4-oxazepan-6-yl)amino)-5-(trifluoromethyl)pyrimidin-4-yl)-7-(dimethylphosphoryl)-1H-indole-6-carbonitrile] | 0.02 to 0.2 | > 50 | 0.02 to 0.2 | 0.02 to 0.2 | > 50 | > 50
8 | CP(C)(=O)c1c(C#N)ccc2c(-c3nc(N[C@@H]4CCC45CNC5)ncc3C(F)(F)F)c[nH]c12 [Compound 77, (R)-3-(2-((2-azaspiro[3.3]heptan-5-yl)amino)-5-(trifluoromethyl)pyrimidin-4-yl)-7-(dimethylphosphoryl)-1H-indole-6-carbonitrile] | 0.02 to 0.2 | > 50 | 0.02 to 0.2 | 0.02 to 0.2 | > 50 | > 50
9 | CP(C)(=O)c1c(C#N)ccc2c(-c3nc(N[C@H]4CC[C@H](N)C4)ncc3C(F)(F)F)c[nH]c12 [Compound 78, 3-(2-(((1S,3S)-3-aminocyclopentyl)amino)-5-(trifluoromethyl)pyrimidin-4-yl)-7-(dimethylphosphoryl)-1H-indole-6-carbonitrile] | < 0.02 | 5 to 50 | < 0.02 | < 0.02 | 5 to 50 | 5 to 50
10 | CP(C)(=O)c1cccc2c(-c3nc(N[C@@H]4CCC45CNC5)ncc3C(F)(F)F)c[nH]c12 [Compound 80] | < 0.02 | 5 to 50 | < 0.02 | < 0.02 | 5 to 50 | 0.2 to 5
